# According to article PMC3177598 (Bioorganic & medicinal chemistry letters, 2008):
# Assays:
# [1] = system: mAChRs (M1, M3 and M5); conditions: in our hands; ref [8]; cited from earlier work
# [2] = target: D2 (Homo sapiens, UniProt P14416); assay: D2 antagonist activity / D2 inhibition; type: cell-based
# D2, sequence (P14416 whole entry): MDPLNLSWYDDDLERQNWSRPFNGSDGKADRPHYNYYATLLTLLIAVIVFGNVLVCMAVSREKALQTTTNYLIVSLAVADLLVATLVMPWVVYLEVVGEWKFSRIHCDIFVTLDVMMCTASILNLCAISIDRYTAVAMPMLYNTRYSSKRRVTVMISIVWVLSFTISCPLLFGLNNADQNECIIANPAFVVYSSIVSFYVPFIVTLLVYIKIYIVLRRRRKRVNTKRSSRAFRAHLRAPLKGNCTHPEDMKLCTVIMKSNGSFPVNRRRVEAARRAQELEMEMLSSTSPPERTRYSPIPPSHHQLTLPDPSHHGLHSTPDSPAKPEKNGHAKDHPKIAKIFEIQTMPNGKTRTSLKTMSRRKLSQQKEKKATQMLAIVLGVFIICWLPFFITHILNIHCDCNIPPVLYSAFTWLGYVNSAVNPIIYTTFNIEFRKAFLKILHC
Structure (SMILES),mAChR subtypes activated (in words) [1],D2 inhibition (in words) [2]
CC[C@@H]1SC2(CCN(C)CC2)NC1=O [AF267B],"activates M1, M3 and M5, and is M3 preferring",–
Cc1ccccc1CN1CCC(N2CCC(n3c(=O)[nH]c4cc(F)ccc43)CC2)CC1 [Compound 20b],–,no significant D2 inhibition
Cc1ccccc1CN1CCC(N2CCC(n3c(=O)[nH]c4ccc(F)cc43)CC2)CC1 [Compound 20c],–,no significant D2 inhibition
